From patent US20070129367A1, “Pyridine derivatives as cb2 receptor modulators” (priority 2002, published 2007)
Like-named read-outs stand apart in the source and are kept apart here.

Molecular target: T1, human cannabinoid CB2 receptor (Homo sapiens, UniProt P34972)
T1 construct: expressed in transfected cells; host or cells: Saccharomyces cerevisiae strain MMY23 (cassette integrated at the ura3 locus, GPD promoter)
Experiment: Cannabinoid CB2 receptor agonist activity in yeast (Saccharomyces cerevisiae) cells expressing the receptor, FDGlu fluorescence readout;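 on Emax: percent of the maximal response of the reference agonist HU210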
Format: cell-based
Details: for Emax: read-out: efficacy (Emax) at the cloned human cannabinoid CB2 receptor
Method: Determination of Cannabinoid CB2 Receptor Agonist Activity
The cannabinoid CB2 receptor agonist activity of the compounds of formula (I) was determined in accordance with the following experimental method.
Yeast (Saccharomyces cerevisiae) cells expressing the human cannabinoid CB2 receptor were generated by integration of an expression cassette into the ura3 chromosomal locus of yeast strain MMY23. This cassette consisted of DNA sequence encoding the human CB2 receptor flanked by the yeast GPD promoter to the 5′ end of CB2 and a yeast transcriptional terminator sequence to the 3′ end of CB2. MMY23 expresses a yeast/mammalian chimeric G-protein alpha subunit in which the C-terminal 5 amino acids of Gpa1 are replaced with the C-terminal 5 amino acids of human Gαi3 (as described in Brown et aL (2000), Yeast 16:11-22). Cells were grown at 30° C. in liquid Synthetic Complete (SC) yeast media (Guthrie and Fink (1991), Methods in Enzymology, Vol. 194) lacking uracil, tryptophan, adenine and leucine to late logarithmic phase (approximately 6 OD600/ml).
Agonists were prepared as 10 mM stocks in DMSO. […] Agonist solutions in DMSO (1% final assay volume) were transferred into black, clear bottom, microtitre plates from NUNC (96- or 384-well). […] This mixture (50 ul per well for 384-well plates, 200 ul per well for 96-well plates) was added to agonist in the assay plates (Multidrop 384, Labsystems). After incubation at 30° C. for 24 hours, fluorescence resulting from degradation of FDGlu to fluorescein due to exoglucanase, an endogenous yeast enzyme produced during agonist-stimulated cell growth, was determined using a Spectrofluor microtitre plate reader (Tecan; excitation wavelength: 485 nm; emission wavelength: 535 nm). Fluorescence was plotted against compound concentration and iteratively curve fitted using a four parameter fit to generate a concentration effect value. […] Equieffective molar ratio (EMR) values were calculated from the equation EMR=EC50 [compound X]/EC50 [HU210]
Where EC50 [compound X] is the EC50 of compound X and EC50 [HU210] is the EC50 of HU210.

[1] = agonist activity, yeast cells, 24 hours at 30° C., read-out: EC50 at the cloned human cannabinoid CB2 receptor

T1 sequence (P34972 whole entry): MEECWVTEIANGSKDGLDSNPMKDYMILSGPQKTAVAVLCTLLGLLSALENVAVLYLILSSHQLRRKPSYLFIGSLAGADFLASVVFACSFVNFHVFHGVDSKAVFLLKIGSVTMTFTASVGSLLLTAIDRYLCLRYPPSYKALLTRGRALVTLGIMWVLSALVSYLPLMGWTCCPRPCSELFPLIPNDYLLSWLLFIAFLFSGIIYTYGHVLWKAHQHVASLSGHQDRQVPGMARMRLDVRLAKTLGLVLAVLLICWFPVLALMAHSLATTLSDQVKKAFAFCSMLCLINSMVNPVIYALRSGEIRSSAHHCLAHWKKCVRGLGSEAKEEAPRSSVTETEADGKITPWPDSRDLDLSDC

Row | EC50 [1] [nM] | Structure (SMILES) | Emax [%] | EC50 [nM]
1 | < 300 | CC(C)c1cc(Nc2ccc(C#N)cc2)ncc1C(=O)NCc1ccc(F)cc1 [Example 18, 6-(4-Cyano-phenylamino)-N-(4-fluoro-benzyl)-4-isopropyl-nicotinamide] | – | –
2 | < 300 | CC(C)c1cc(Nc2ccc(Br)c(F)c2)ncc1C(=O)NCc1ccc(F)cc1 [Example 24, 6-(4-Bromo-3-fluoro-fluoro-benzyl)-4-phenylamino)-N-(4-isopropyl-nicotinamide] | – | –
3 | – | CC(C)c1cc(Nc2cccc(Cl)c2)ncc1C(=O)NCc1ccc(F)cc1 [Example 3, 6-(3-Chlorophenylamino)-N-(4-fluorobenzyl)-4-isopropyl-nicotinamide] | > 50 | –
4 | – | Cc1cc(Cl)ccc1Nc1cc(C(F)(F)F)c(C(=O)NCc2ccncc2)cn1 [Example 58, N-(Pyridin-4-ylmethyl)-6-(2-methyl-4-chloro-phenylamino)-4-trifluoromethyl-nicotinamide] | > 50 | < 300
5 | – | O=C(NCc1ccncc1)c1cnc(Nc2cccc(Cl)c2)cc1C(F)(F)F [Example 1, 2-(3-Chlorophenylamino)-4-trifluoromethylpyridine-5-carboxylic acid (pyridin-4-ylmethyl) amide] | > 50 | < 300
6 | – | O=C(NCc1ccnc(F)c1)c1cnc(Nc2cccc(Cl)c2)cc1C(F)(F)F [Example 45, N-(2-Fluoro-pyridin-4-ylmethyl)-6-(3-chloro-phenylamino)-4-trifluoromethyl-nicotinamide] | > 50 | < 300
7 | – | CC(C)c1cc(Nc2cccc(Cl)c2)ncc1C(=O)NCc1ccc(F)c(F)c1 [Example 7, 6-(3-Chloro-phenylamino)-N-(3,4-difluoro-benzyl)-4-isopropyl-nicotinamide] | > 50 | 300 to 1000
8 | – | CC(C)c1cc(Nc2ccc(Cl)cc2F)ncc1C(=O)NCc1ccc(F)cc1 [Example 20, 6-(4-Chloro-2-fluoro-phenylamino)-N-(4-fluoro-benzyl)-4-isopropyl-nicotinamide] | > 50 | < 300
9 | < 300 | CC(C)c1cc(Nc2cccc(C#N)c2)ncc1C(=O)NCc1ccc(F)cc1 [Example 19, 6-(3-Cyano-phenylamino)-N-(4-fluoro-benzyl)-4-isopropyl-nicotinamide] | – | –
10 | – | CC(C)c1cc(Nc2ccc(Br)cc2Cl)ncc1C(=O)NCc1ccc(F)cc1 [Example 21, 6-(4-Bromo-2-chloro-phenylamino)-N-(4-fluoro-benzyl)-4-isopropyl-nicotinamide] | > 50 | < 300
11 | – | O=C(NCc1ccc(F)cc1)c1cnc(Nc2cccc(Cl)c2)cc1C(F)(F)F [Example 44, N-(4-Fluoro-benzyl)-6-(3-chloro-phenylamino)-4-trifluoromethyl-nicotinamide] | > 50 | < 300
12 | – | CC(C)c1cc(Nc2cccc(C(F)(F)F)c2)ncc1C(=O)NCc1ccc(F)cc1 [Example 14, N-(4-Fluoro-benzyl)-4-isopropyl-6-(3-trifluoromethyl-phenylamino)-nicotinamide] | > 50 | 300 to 1000
